19 molecules from patent US9796741B2 (Achillion Pharmaceuticals, Inc., priority 2014, dated 2017) can be followed below.

The structures appear in SMILES notation. A value given as a limit tells only on which side of the number the result lay.

The target of the assay is Human factor D (Homo sapiens (Human), UniProt P00746). In words: Human Factor D Assay. The following applies: human factor D 80 nM, substrate Z-L-Lys-SBzl, DTNB. It is filed as biochemical. The gist of the method: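 Serum-purified factor D (80 nM final) preincubated 5 min at room temperature with compound in 50 mM Tris, 1M NaCl, pH 7.5. Z-L-Lys-SBzl and DTNB added at 100 μM each; OD405 followed kinetically over 30 min. IC50 by non-linear regression of % inhibition.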
Chain of Human factor D (P00746 26-253): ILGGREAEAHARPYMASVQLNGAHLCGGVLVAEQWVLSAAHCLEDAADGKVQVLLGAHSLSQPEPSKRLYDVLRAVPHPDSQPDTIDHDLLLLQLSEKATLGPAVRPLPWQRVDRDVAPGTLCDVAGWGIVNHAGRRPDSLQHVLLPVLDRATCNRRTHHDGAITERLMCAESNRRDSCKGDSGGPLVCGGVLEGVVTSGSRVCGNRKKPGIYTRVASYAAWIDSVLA
Turning to `NC(=O)c1nn(CC(=O)N2C[C@H](F)C[C@H]2C(=O)N[C@@H]2CCC[C@H]2O)c2ccc(-c3ccnnc3)cc12` [Compound 145, 1-(2-((2S,4R)-4-fluoro-2-((1R,2R)-2-hydroxycyclopentyl-carbamoyl)pyrrolidin-1-yl)-2-oxoethyl)-5-(pyridazin-4-yl)-1H-indazole-3-carboxamide], the IC50 is over 10 µM.

Turning to `NC(=O)c1nn(CC(=O)N2C[C@H](F)C[C@H]2C(=O)Nc2nc(-c3cccc(Cl)c3)ns2)c2ccc(-c3ccnnc3)cc12` [Compound 146, 1-(2-((2S,4R)-2-(3-(3-chlorophenyl)-1,2,4-thiadiazol-5-ylcarbamoyl)-4-fluoropyrrolidin-l-yl)-2-oxoethyl)-5-(pyridazin-4-yl)-1H-indazole-3-carboxamide], the IC50 was over 10 µM.

`CC(=O)c1cn(CC(=O)N2C[C@H](F)C[C@H]2C(=O)Nc2nc(-c3cccc(Cl)c3)ns2)c2ccc(-c3ccnnc3)cc12` [Compound 147, (2S,4R)-1-(2-(3-acetyl-5-(pyridazin-4-yl)-1H-indol-1-yl)acetyl)-N-(3-(3-chlorophenyl)-1,2,4-thiadiazol-5-yl)-4-fluoropyrrolidine-2-carboxamide] returned an IC50 of over 10 µM.

`CC(=O)c1cn(CC(=O)N2C[C@H](F)C[C@H]2C(=O)Nc2cccc(-c3cc(F)c(F)cc3Cl)c2F)c2ccc(-c3cnc(C)nc3)cc12` [Compound 150, (2S,4R)-1-(2-(3-acetyl-5-(2-methylpyrimidin-5-yl)-1H-indol-1-yl)acetyl)-N-(2′-chloro-2,4′,5′-trifluorobiphenyl-3-yl)-4-fluoropyrrolidine-2-carboxamide] gave an IC50 of under 1 µM.

`CC(=O)c1cn(CC(=O)N2C[C@H](F)C[C@H]2C(=O)Nc2cccc(-c3ccccc3Cl)c2F)c2ccc(-c3ccc(C)nc3)cc12` [Compound 151, (2S,4R)-1-(2-(3-acetyl-5-(6-methylpyridin-3-yl)-1H-indol-1-yl)acetyl)-N-(2′-chloro-2-fluorobiphenyl-3-yl)-4-fluoropyrrolidine-2-carboxamide] yielded an IC50 of under 1 µM.

In turn, `CC1Oc2cccc(NC(=O)[C@@H]3C[C@@H](F)CN3C(=O)Cn3nc(C(N)=O)c4cc(-c5ccnnc5)ccc43)c2NC1=O` (stereo partly drawn) [Compound 152, 1-(2-((2S,4R)-4-fluoro-2-(2-methyl-3-oxo-3,4-dihydro-2H-benzo[b][1,4]oxazin-5-ylcarbamoyl)pyrrolidin-1-yl)-2-oxoethyl)-5-(pyridazin-4-yl)-1H-indazole-3-carboxamide] showed an IC50 of over 10 µM.

For the molecule `CC(=O)c1cn(CC(=O)N2C[C@H](F)C[C@H]2C(=O)Nc2cccc3c2NC(=O)C(C)O3)c2ccc(-c3ccnnc3)cc12` (stereo partly drawn) [Compound 153, (2S,4R)-1-(2-(3-acetyl-5-(pyridazin-4-yl)-1H-indol-1-yl)acetyl)-4-fluoro-N-(2-methyl-3-oxo-3,4-dihydro-2H-benzo[b][1,4]oxazin-5-yl)pyrrolidine-2-carboxamide], the IC50 is over 10 µM.

Regarding `NC(=O)c1nn(CC(=O)N2C[C@H](F)C[C@H]2C(=O)Nc2cc(O)ccn2)c2ccc(-c3ccnnc3)cc12` [Compound 154, 1-(2-((2S,4R)-4-fluoro-2-(4-hydroxypyridin-2-ylcarbamoyl)pyrrolidin-l-yl)-2-oxoethyl)-5-(pyridazin-4-yl)-1H-indazole-3-carboxamide], the IC50 was over 10 µM.

`Cn1ccc(N2CCC(NC(=O)[C@@H]3C[C@@H](F)CN3C(=O)Cn3nc(C(N)=O)c4cc(-c5ccnnc5)ccc43)C2=O)n1` (stereo partly drawn) [Compound 155, 1-(2-((2S,4R)-4-fluoro-2-(1-(1-methyl-1H-pyrazol-3-yl)-2-oxopyrrolidin-3-ylcarbamoyl)pyrrolidin-1-yl)-2-oxoethyl)-5-(pyridazin-4-yl)-1H-indazole-3-carboxamide] gave an IC50 of over 10 µM.

Consider `CC(=O)c1cn(CC(=O)N2C[C@H](F)C[C@H]2C(=O)Nc2c[nH]nc2-c2ccc(Cl)cc2Cl)c2ccc(-c3ccnnc3)cc12` [Compound 156, (2S,4R)-1-(2-(3-acetyl-5-(pyridazin-4-yl)-1H-indol-1-yl)acetyl)-N-(3-(2,4-dichlorophenyl)-1H-pyrazol-4-yl)-4-fluoropyrrolidine-2-carboxamide], for which the concentration for half-maximal inhibition (IC50) is over 10 µM.

In turn, `NC(=O)c1nn(CC(=O)N2C[C@H](F)C[C@H]2C(=O)NCc2ccncc2)c2ccc(-c3ccnnc3)cc12` [Compound 157, 1-(2-((2S,4R)-4-fluoro-2-(pyridin-4-ylmethylcarbamoyl)pyrrolidin-1-yl)-2-oxoethyl)-5-(pyridazin-4-yl)-1H-indazole-3-carboxamide] yielded an IC50 of over 10 µM.

`Cc1cc(NC(=O)[C@@H]2C[C@@H](F)CN2C(=O)Cn2nc(C(N)=O)c3cc(-c4ccnnc4)ccc32)n(-c2ccccc2F)n1` [Compound 158, 1-(2-((2S,4R)-4-fluoro-2-(1-(2-fluorophenyl)-3-methyl-1H-pyrazol-5-ylcarbamoyl)pyrrolidin-1-yl)-2-oxoethyl)-5-(pyridazin-4-yl)-1H-indazole-3-carboxamide] had an IC50 of over 10 µM.

For the molecule `CC(=O)c1cn(CC(=O)N2C[C@@H](F)C[C@@H]2C(=O)NC2CCCN(c3ccccc3Cl)C2=O)c2ccc(-c3ccnnc3)cc12` (stereo partly drawn) [Compound 161, (2R,4S)-1-(2-(3-acetyl-5-(pyridazin-4-yl)-1H-indol-1-yl)acetyl)-N-(1-(2-chlorophenyl)-2-oxopiperidin-3-yl)-4-fluoropyrrolidine-2-carboxamide], the IC50 was under 1 µM.

The molecule `CC(=O)c1nn(CC(=O)N2C[C@H](F)C[C@H]2C(=O)Nc2cccc(-c3ccccc3Cl)c2F)c2ccc(-c3cnc(C)nc3)cc12` [Compound 163, (2S,4R)-1-(2-(3-acetyl-5-(2-methylpyrimidin-5-yl)-1H-indazol-1-yl)acetyl)-N-(2′-chloro-2-fluorobiphenyl-3-yl)-4-fluoropyrrolidine-2-carboxamide] gave an IC50 of under 1 µM.

The molecule `CC(=O)c1cn(CC(=O)N2C[C@H](F)C[C@H]2C(=O)Nc2cccc(-c3ncccc3Cl)c2F)c2ccc(-c3cnc(C)nc3)cc12` [Compound 164, (2S,4R)-1-(2-(3-acetyl-5-(2-methylpyrimidin-5-yl)-1H-indol-1-yl)acetyl)-N-(3-(3-chloropyridin-2-yl)-2-fluorophenyl)-4-fluoropyrrolidine-2-carboxamide] showed an IC50 of under 1 µM.

`CC(=O)c1cn(CC(=O)N2C[C@H](F)C[C@H]2C(=O)Nc2noc(-c3ccccc3Cl)n2)c2ccc(-c3ccnnc3)cc12` [Compound 182, (2S,4R)-1-(2-(3-acetyl-5-(pyridazin-4-yl)-1H-indol-1-yl)acetyl)-N-(5-(2-chlorophenyl)-1,2,4-oxadiazol-3-yl)-4-fluoropyrrolidine-2-carboxamide] registered an IC50 of under 1 µM.

Molecule `CC(=O)c1cn(CC(=O)N2C[C@H](F)C[C@H]2C(=O)Nc2cccc(-c3ccccc3Cl)c2F)c2ccc(-c3cnc(O)nc3)cc12` [Compound 186, (2S,4R)-1-(2-(3-acetyl-5-(2-hydroxypyrimidin-5-yl)-1H-indol-1-yl)acetyl)-N-(2′-chloro-2-fluorobiphenyl-3-yl)-4-fluoropyrrolidine-2-carboxamide] registered an IC50 of under 1 µM.

`COCCNc1ncc(-c2ccc3c(c2)c(C(C)=O)cn3CC(=O)N2C[C@H](F)C[C@H]2C(=O)Nc2cccc(-c3ccccc3Cl)c2F)cn1` [Compound 187, (2S,4R)-1-(2-(3-acetyl-5-(2-(2-methoxyethylamino)pyrimidin-5-yl)-1H-indol-1-yl)acetyl)-N-(2′-chloro-2-fluorobiphenyl-3-yl)-4-fluoropyrrolidine-2-carboxamide] returned an IC50 of under 1 µM.

The molecule `CNc1ncc(-c2ccc3c(c2)c(C(C)=O)cn3CC(=O)N2C[C@H](F)C[C@H]2C(=O)Nc2cccc(-c3ccccc3Cl)c2F)cn1` [Compound 188, (2S,4R)-1-(2-(3-acetyl-5-(2-(methylamino)pyrimidin-5-yl)-1H-indol-1-yl)acetyl)-N-(2′-chloro-2-fluorobiphenyl-3-yl)-4-fluoropyrrolidine-2-carboxamide] came in with an IC50 of under 1 µM.

What is called IC50 is the concentration that inhibits the measured activity by half. Higher therefore signals lower potency.
